Results on 16 molecules are retold here after patent publication US11845742B2, “Therapeutic compounds and methods to treat infection” (priority 2017, dated 2023).

Assay [1] relates to MreB. Conditions: P. aeruginosa; background statement; cited from earlier work.
Assay [2] concerns the target T1, MexAB-OprM efflux transporter (Pseudomonas aeruginosa, UniProt P52002).
T1 construct: MexAB-OprM efflux transporter present in wild-type P. aeruginosa; endogenous in cells; host or cells: wild-type P. aeruginosa
The note with it: wild-type P. aeruginosa, background statement; cited from earlier work.

Assay [3] concerns K. pneumoniae ATCC 10031. In words: Intrinsic MIC assay (broth microdilution), K. pneumoniae. Conditions: Klebsiella pneumoniae. It is filed as cell-based, Klebsiella pneumoniae. How it is done:
(§1) MIC assays were conducted in accordance with Clinical and Laboratory Standards Institute (CLSI) guidelines for broth microdilution.
(§2) The intrinsic MIC of the experimental EPIs was tested with the method described. The 2-fold serial dilution begins with 100 μg/mL of tested compound in the first column of the 96-well plates. The following Gram-negative bacterial strains were included in these assays: • Escherichia coli ATCC 25922 • Klebsiella pneumoniae ATCC 13883 and ATCC 10031 • Pseudomonas aeruginosa ATCC 27853. • Pseudomonas aeruginosa PAO1 • Acinetobacter baumannii ATCC 19606

For assay [4], the system named is P. Aeruginosa PAO1. In words: MIC assay in the presence of a bacterial efflux pump inhibitor (EPI), P. aeruginosa PAO1. In kind it is cell-based, Pseudomonas aeruginosa. The note with it: in the presence of 12.5 μg/ml of N-(((2S,4R)-4-(aminomethyl)pyrrolidin-2-yl)methyl)-6-(4-fluorophenyl)-1H-indole-2-carboxamide. How it is done:
The ability of a compound to produce an antibiotic effect can be determined using a method as described in Example 11. Data for representative compounds used in combination with the bacterial efflux pump inhibitor (EPI) N-(((2S,4R)-4-(aminomethyl)pyrrolidin-2-yl)methyl)-6-(4-fluorophenyl)-1H-indole-2-carboxamide is shown in Table 1.
as §1
The EPI assay for the purposes of these studies represents a MIC assay in which the MIC of the antibiotic against the bacteria is tested in the presence of an experimental efflux pump inhibitor (EPI). The highest concentration of the EPI present in the assay typically is ½ of the intrinsic MIC of the compound. […] Using serial dilutions of the EPI, its enhancement of antibiotic activity was then evaluated. The relative EPI activity was decided by comparing the MIC of the antibiotic in the presence of the EPI compound with the intrinsic MIC of the antibiotic alone. For comparative purposes, we generally used EPIs at concentration of 12.5 and 6.25 μg/ml against varying concentration of our test antibiotic.

Assay [5] deals with E. coli ATCC 25922. In words: Intrinsic MIC assay (broth microdilution), E. coli. In kind it is cell-based, Escherichia coli. The note with it: Escherichia coli. How it is done:
as §1, §2
(Broth dilution looks for growth in wells or tubes with falling amounts of substance.)

In assay [6] the test system is A. baumannii ATCC 19606. In words: Intrinsic MIC assay (broth microdilution), A. baumannii. In kind it is cell-based, Acinetobacter baumannii. The note with it: Acinetobacter baumannii. How it is done:
as §1, §2

The subject of assay [7] is P. Aeruginosa PAO1. Description: Intrinsic MIC assay (broth microdilution), P. aeruginosa PAO1. In kind it is cell-based, Pseudomonas aeruginosa. Conditions: for MIC: Pseudomonas aeruginosa, read-out: Intrinsic MIC. On the procedure: as §1, §2
The mark [8] stands for this setting: ATCC10031, K. pneumoniae ATCC 10031, read-out: Intrinsic MIC.
Where [9] appears, read: ATCC25922, E. coli ATCC 25922, read-out: Intrinsic MIC.
[10] abbreviates: ATCC19606, A. baumannii ATCC 19606, read-out: Intrinsic MIC.
Setting [11] is: 18 h, P. Aeruginosa PAO1, without EPI.

For orientation: MIC means the lowest concentration found to suppress growth.

Structures are written as SMILES. In brackets after ≈: the same amount, converted by molar mass. Where two headings read alike, the source gives them in different places.

T1 sequence (P52477 24-383): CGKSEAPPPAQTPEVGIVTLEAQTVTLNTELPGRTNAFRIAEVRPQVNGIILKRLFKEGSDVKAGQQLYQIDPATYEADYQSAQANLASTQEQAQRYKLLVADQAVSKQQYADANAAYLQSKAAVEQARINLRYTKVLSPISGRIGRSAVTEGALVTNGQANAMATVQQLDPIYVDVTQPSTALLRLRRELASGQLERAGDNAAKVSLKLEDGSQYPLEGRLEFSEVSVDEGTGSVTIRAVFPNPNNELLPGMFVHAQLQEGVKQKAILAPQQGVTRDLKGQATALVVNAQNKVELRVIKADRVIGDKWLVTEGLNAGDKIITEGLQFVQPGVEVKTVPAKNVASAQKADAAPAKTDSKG
T1 sequence (P52002 whole entry): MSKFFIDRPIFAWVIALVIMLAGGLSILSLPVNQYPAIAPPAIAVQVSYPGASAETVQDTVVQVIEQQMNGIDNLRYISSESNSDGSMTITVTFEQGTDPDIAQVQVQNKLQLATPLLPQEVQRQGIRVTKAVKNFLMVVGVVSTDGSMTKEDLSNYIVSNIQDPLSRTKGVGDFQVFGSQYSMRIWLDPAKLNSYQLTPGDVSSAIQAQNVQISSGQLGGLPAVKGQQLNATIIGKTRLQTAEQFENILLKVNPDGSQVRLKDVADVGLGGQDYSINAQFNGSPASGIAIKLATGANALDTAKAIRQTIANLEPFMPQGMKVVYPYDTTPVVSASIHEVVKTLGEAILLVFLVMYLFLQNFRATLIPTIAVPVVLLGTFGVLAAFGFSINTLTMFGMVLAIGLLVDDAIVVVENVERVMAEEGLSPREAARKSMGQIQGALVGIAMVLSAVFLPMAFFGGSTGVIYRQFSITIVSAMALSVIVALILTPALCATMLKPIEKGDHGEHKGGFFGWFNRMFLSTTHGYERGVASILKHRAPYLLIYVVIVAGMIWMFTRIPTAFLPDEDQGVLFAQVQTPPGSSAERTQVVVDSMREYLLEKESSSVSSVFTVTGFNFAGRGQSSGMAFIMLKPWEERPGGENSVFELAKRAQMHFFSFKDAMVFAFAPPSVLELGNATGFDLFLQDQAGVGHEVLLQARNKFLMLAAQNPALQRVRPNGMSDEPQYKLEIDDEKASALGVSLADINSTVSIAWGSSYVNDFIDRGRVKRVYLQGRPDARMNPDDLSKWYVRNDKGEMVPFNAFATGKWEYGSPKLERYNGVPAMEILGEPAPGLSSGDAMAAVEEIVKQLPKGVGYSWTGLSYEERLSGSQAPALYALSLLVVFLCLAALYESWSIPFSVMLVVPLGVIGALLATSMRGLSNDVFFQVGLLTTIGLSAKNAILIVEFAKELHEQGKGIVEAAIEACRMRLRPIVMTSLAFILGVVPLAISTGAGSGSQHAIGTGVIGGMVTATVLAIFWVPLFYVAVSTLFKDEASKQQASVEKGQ
T1 sequence (Q51487 18-485, further chain): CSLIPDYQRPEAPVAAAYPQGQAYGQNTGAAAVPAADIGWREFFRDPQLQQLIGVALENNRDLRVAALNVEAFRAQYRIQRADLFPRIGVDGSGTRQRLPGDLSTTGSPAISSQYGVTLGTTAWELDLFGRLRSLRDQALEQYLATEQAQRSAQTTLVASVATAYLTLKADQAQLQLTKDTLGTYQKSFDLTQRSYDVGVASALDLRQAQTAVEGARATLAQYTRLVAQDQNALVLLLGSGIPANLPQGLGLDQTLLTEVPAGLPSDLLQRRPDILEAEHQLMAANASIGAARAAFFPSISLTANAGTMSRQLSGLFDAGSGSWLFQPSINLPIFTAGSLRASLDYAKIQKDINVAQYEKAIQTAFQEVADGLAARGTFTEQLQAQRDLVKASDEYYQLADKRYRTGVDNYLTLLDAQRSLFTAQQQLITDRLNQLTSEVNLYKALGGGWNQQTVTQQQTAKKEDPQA

For `NC1CCCc2c1[nH]c1ccc(Br)cc21` (centres unmarked) [CBR-4830], the MreB inhibition entry in assay [1] was “effective MreB inhibitor”. Moreover, in assay [2], the Efflux transporter substrate entry is reported as “substrate for the MexAB-OprM efflux transporter”.
For `NC1CCCCc2c1[nH]c1cc(Cl)c(Cl)cc21` (centres unmarked) [Example 21, 2,3-Dichloro-5,6,7,8,9,10-hexahydrocyclohepta[b]indol-6-amine hydrochloric acid], the MIC in assay [3] (ATCC10031, read-out: Intrinsic MIC) was determined as 8 mg/L (≈ 29.7 µM); in assay [5] (ATCC25922, read-out: Intrinsic MIC) it was 16 mg/L (≈ 59.4 µM); in assay [6] (ATCC19606, read-out: Intrinsic MIC), 16 mg/L (≈ 59.4 µM); in assay [7] (PAO1, 18 h), 256 mg/L (≈ 951 µM). Also, in assay [4], the MIC in the Presence of EPI* was 32 mg/L.
For the molecule `NC1CCc2c1[nH]c1ccc(Cl)c(Cl)c21` (centres unmarked) [Example 22, 7,8-Dichloro-1,2,3,4-tetrahydrocyclopenta[b]indol-3-amine], the MIC in assay [3] (setting [8]) is 8 mg/L (≈ 33.2 µM); in assay [5] (setting [9]), 16 mg/L (≈ 66.4 µM); in assay [6] (setting [10]) it was 8 mg/L (≈ 33.2 µM). Further, the MIC in the Presence of EPI* in assay [4] is 1 mg/L. In assay [7] (P. Aeruginosa PAO1, without EPI), this molecule yielded an Intrinsic MIC of 32 mg/L.
As to `NC1CCc2c1[nH]c1cc(Cl)c(Cl)cc21` (centres unmarked) [Example 23, 6,7-Dichloro-1,2,3,4-tetrahydrocyclopenta[b]indol-3-amine], the MIC came to 8 mg/L (≈ 33.2 µM) in assay [3] (setting [8]), 16 mg/L (≈ 66.4 µM) in assay [5] (setting [9]), 16 mg/L (≈ 66.4 µM) in assay [6] (setting [10]) and 64 mg/L (≈ 265 µM) in assay [7] (setting [11]). Also, the MIC in the Presence of EPI* in assay [4] stood at 8 mg/L.
`CC(NCCCNC(=O)c1cc(Cl)c(Cl)s1)c1cc2cc(Br)ccc2[nH]1` (centres unmarked) [Example 25, N-(3-((1-(5-Bromo-1H-indol-2-yl)ethyl)amino)propyl)-4,5-dichlorothiophene-2-carboxamide]: the MIC is 1 mg/L (≈ 2.1 µM) in assay [3] (setting [8]), 8 mg/L (≈ 16.8 µM) in assay [5] (setting [9]), 16 mg/L (≈ 33.7 µM) in assay [6] (setting [10]) and over 256 mg/L in assay [7] (setting [11]). For the same molecule, the MIC in the Presence of EPI* in assay [4] amounted to 16 mg/L.
As to `CC(NCCCNC(=O)c1ccc(Cl)o1)c1cc2cc(Br)ccc2[nH]1` (centres unmarked) [Example 26, N-(3-((1-(5-Bromo-1H-indol-2-yl)ethyl)amino)propyl)-5-chlorofuran-2-carboxamide], the minimal inhibitory concentration (MIC) in assay [3] (setting [8]) is 16 mg/L (≈ 37.7 µM); in assay [5] (setting [9]), 64 mg/L (≈ 151 µM); in assay [6] (setting [10]) it was 128 mg/L (≈ 301 µM); in assay [7] (setting [11]), over 256 mg/L. Also, the MIC in the Presence of EPI* in assay [4] came to 16 mg/L.
As to `CC(NCCCNC(=O)c1ccc(Cl)c(Cl)c1)c1cc2cc(Br)ccc2[nH]1` (centres unmarked) [Example 30, N-(3-((1-(5-Bromo-1H-indol-2-yl)ethyl)amino)propyl)-3,4-dichlorobenzamide], the minimum inhibitory concentration (MIC) was 4 mg/L (≈ 8.52 µM) in assay [3] (setting [8]), 32 mg/L (≈ 68.2 µM) in assay [5] (setting [9]), 64 mg/L (≈ 136 µM) in assay [6] (setting [10]) and over 256 mg/L in assay [7] (setting [11]). Moreover, in assay [4], the MIC in the Presence of EPI* came to 32 mg/L.
As for `CC(NCCCNC(=O)C1CCCCC1)c1cc2cc(Br)ccc2[nH]1` (centres unmarked) [Example 31, N-(3-((1-(5-Bromo-1H-indol-2-yl)ethyl)amino)propyl)cyclohexanecarboxamide], the MIC was 16 mg/L (≈ 39.4 µM) in assay [3] (setting [8]), 64 mg/L (≈ 157 µM) in assay [5] (setting [9]), 64 mg/L (≈ 157 µM) in assay [6] (setting [10]) and over 256 mg/L in assay [7] (setting [11]). The MIC in the Presence of EPI* in assay [4] worked out at 128 mg/L.
Turning to `CCCCNC(C)c1cc2cc(Br)ccc2[nH]1` (centres unmarked) [Example 32, N-(1-(5-Bromo-1H-indol-2-yl)ethyl)butan-1-amine], the MIC is 16 mg/L (≈ 54.2 µM) in assay [3] (setting [8]), 32 mg/L (≈ 108 µM) in assay [5] (setting [9]), 64 mg/L (≈ 217 µM) in assay [6] (setting [10]) and over 256 mg/L in assay [7] (setting [11]). In assay [4], the MIC in the Presence of EPI* is 64 mg/L.
With `CC(NCCc1ccccc1)c1cc2cc(Br)ccc2[nH]1` (centres unmarked) [Example 33, 1-(5-Bromo-1H-indol-2-yl)-N-phenethylethan-1-amine], the MIC is 4 mg/L (≈ 11.7 µM) in assay [3] (setting [8]), 16 mg/L (≈ 46.6 µM) in assay [5] (setting [9]), 32 mg/L (≈ 93.2 µM) in assay [6] (setting [10]) and over 256 mg/L in assay [7] (setting [11]). The MIC in the Presence of EPI* in assay [4] stood at 32 mg/L.
Regarding `CC(NCCNC(=O)c1ccc(Cl)c(Cl)c1)c1cc2cc(Br)ccc2[nH]1` (centres unmarked) [Example 34, N-(2-((1-(5-Bromo-1H-indol-2-yl)ethyl)amino)ethyl)-3,4-dichlorobenzamide], the MIC in assay [3] (setting [8]) is 4 mg/L (≈ 8.79 µM); in assay [5] (setting [9]) it was 32 mg/L (≈ 70.3 µM); in assay [6] (setting [10]) it was 64 mg/L (≈ 141 µM); in assay [7] (setting [11]), over 256 mg/L. Moreover, in assay [4], the MIC in the Presence of EPI* came to 32 mg/L.
Take `CC(NCC1CC1)c1cc2cc(Br)ccc2[nH]1` (centres unmarked) [Example 35, 1-(5-Bromo-1H-indol-2-yl)-N-(cyclopropylmethyl)ethan-1-amine]: the MIC was 64 mg/L (≈ 218 µM) in assay [3] (setting [8]), 128 mg/L (≈ 437 µM) in assay [5] (setting [9]), 128 mg/L (≈ 437 µM) in assay [6] (setting [10]) and over 256 mg/L in assay [7] (setting [11]). Besides, the MIC in the Presence of EPI* in assay [4] turned out to be 256 mg/L.
With `NC(CCc1ccccc1)c1cc2cc(Br)ccc2[nH]1` (centres unmarked) [Example 36, 1-(5-Bromo-1H-indol-2-yl)-3-phenylpropan-1-amine], the MIC is 8 mg/L (≈ 24.3 µM) in assay [3] (setting [8]), 16 mg/L (≈ 48.6 µM) in assay [5] (setting [9]), 32 mg/L (≈ 97.2 µM) in assay [6] (setting [10]) and over 256 mg/L in assay [7] (setting [11]). The MIC in the Presence of EPI* in assay [4] came to 32 mg/L.
On to `CC(NCCCC(=O)Nc1ccc(Cl)c(Cl)c1)c1cc2cc(Br)ccc2[nH]1` (centres unmarked) [Example 37, 4-((1-(5-Bromo-1H-indol-2-yl)ethyl)amino)-N-(3,4-dichlorophenyl)butanamide], for which the MIC was 4 mg/L (≈ 8.52 µM) in assay [3] (setting [8]), 16 mg/L (≈ 34.1 µM) in assay [5] (setting [9]), 32 mg/L (≈ 68.2 µM) in assay [6] (setting [10]) and over 256 mg/L in assay [7] (setting [11]). For the same molecule, the MIC in the Presence of EPI* in assay [4] is 16 mg/L.
Turning to `CC(NCCCCOc1ccc(Cl)c(Cl)c1)c1cc2cc(Br)ccc2[nH]1` (centres unmarked) [Example 38, N-(1-(5-Bromo-1H-indol-2-yl)ethyl)-4-(3,4-dichlorophenoxy)butan-1-amine], the minimum inhibitory concentration (MIC) in assay [3] (setting [8]) is 4 mg/L (≈ 8.77 µM); in assay [5] (setting [9]), 16 mg/L (≈ 35.1 µM); in assay [6] (setting [10]), 64 mg/L (≈ 140 µM); in assay [7] (setting [11]), over 256 mg/L. For the same molecule, the MIC in the Presence of EPI* in assay [4] was determined as 16 mg/L.
Consider `CCNCCNC(C)c1cc2cc(Br)ccc2[nH]1` (centres unmarked) [Example 39, N^1-(1-(5-Bromo-1H-indol-2-yl)ethyl)-N^2-ethylethane-1,2-diaminehydrochloricacid], for which the MIC in assay [3] (setting [8]) is 128 mg/L (≈ 413 µM); in assay [5] (setting [9]) it was 256 mg/L (≈ 825 µM); in assay [6] (setting [10]), 256 mg/L (≈ 825 µM); in assay [7] (setting [11]), over 256 mg/L. In addition, in assay [4], the MIC in the Presence of EPI* was over 256 mg/L.
